Experimental data: ChEMBL document CHEMBL6134864, “Discovery of FLT3-ITD Inhibitor Clifutinib: A Novel Biphenylacetylene Urea Derivative in Clinical Trials for the Treatment of Relapsed/Refractory FLT3-ITD+ Acute Myeloid Leukemia” (J Med Chem, 2025)
Activity calls are given as the source filed them. No cut-off for these calls is given here.

Key:
[1] = system: PC-3; assay: cells; details: Homo sapiens, PC-3, 72 h
Description: Antiproliferative activity against human PC-3 cells assessed as inhibition of cell growth incubated for 72 hrs by celltiter-glo luminescent cell viability assay

[2] = system: U-251; assay: cells; details: Homo sapiens, U-251, 72 h
Description: Antiproliferative activity against human U-251 cells assessed as inhibition of cell growth incubated for 72 hrs by celltiter-glo luminescent cell viability assay

[3] = system: Receptor-type tyrosine-protein kinase FLT3 (Homo sapiens), P36888 [UNDEFINED MUTATION]; assay: Inhibition of FLT3 in human MV4-11 cells harbouring FLT3-ITD mutant assessed as inhibition of AKT phosphorylation level measured after 2 hrs by Western blot analysis; format: cell-based; details: dose 1-1000 nM
[4] = Tmax in mouse plasma at 10 mg/kg, po measured up to 24 hrs by LC-MS/MS analysis; format: ADME, organism-based
[5] = Cmax in NOD/SCID mouse tumor xenografted with human MV4-11 cells at […], po measured up to 24 hrs by LC-MS/MS analysis; format: ADME, organism-based, Neoplasm; details: dose 1.5 mg/kg
[6] = system: Receptor-type tyrosine-protein kinase FLT3 (Homo sapiens), P36888 [UNDEFINED MUTATION]; assay: Inhibition of FLT3 in human MV4-11 cells harbouring FLT3-ITD mutant assessed as effect on ERK protein level at 1 to 1000 nM measured after 2 hrs by Western blot analysis; format: cell-based; details: dose 1-1000 nM
[7] = system: BaF3; assay: Antiproliferative activity against mouse BaF3 cells harbouring FLT3-ITD-F691I mutant assessed as inhibition of cell growth incubated for 72 hrs by celltiter-glo luminescent cell viability assay; format: functional, cell-based; details: BaF3, 72 h
[8] = Oral bioavailability in rat plasma at 5 mg/kg measured up to 24 hrs by LC-MS/MS analysis; format: ADME, organism-based
[9] = system: SW-620; assay: cells; details: Homo sapiens, SW-620, 72 h
Description: Antiproliferative activity against human SW620 cells assessed as inhibition of cell growth incubated for 72 hrs by celltiter-glo luminescent cell viability assay

[10] = molecular target: Mast/stem cell growth factor receptor Kit (Homo sapiens, UniProt P10721, T670I/V559D); assay: Inhibition of human KIT V559D/T670I mutant by biochemical kinase binding assay
[11] = system: MOLM-13; assay: cells; details: Homo sapiens, MOLM-13, 72 h
Description: Antiproliferative activity against human MOLM-13 cells assessed as inhibition of cell growth incubated for 72 hrs by celltiter-glo luminescent cell viability assay

[12] = molecular target: Cytochrome P450 1A2 (Homo sapiens, UniProt P05177); assay: Inhibition of CYP1A2 in human liver microsomes by UPLC-MS/MS analysis; format: ADME, Microsome
[13] = system: Receptor-type tyrosine-protein kinase FLT3 (Homo sapiens), P36888 [UNDEFINED MUTATION]; assay: Inhibition of FLT3 in human MV4-11 cells harbouring FLT3-ITD mutant assessed as inhibition of ERK phosphorylation level measured after 2 hrs by Western blot analysis; format: cell-based; details: dose 1-1000 nM
[14] = system: Receptor-type tyrosine-protein kinase FLT3 (Homo sapiens), P36888 [UNDEFINED MUTATION]; assay: Inhibition of FLT3 in human MV4-11 cells harbouring FLT3-ITD mutant assessed as effect on AKT protein level at 1 to 1000 nM measured after 2 hrs by Western blot analysis; format: cell-based; details: dose 1-1000 nM
[15] = system: K562; assay: cells; details: Homo sapiens, K562, 72 h
Description: Antiproliferative activity against human K562 cells assessed as inhibition of cell growth incubated for 72 hrs by celltiter-glo luminescent cell viability assay

[16] = system: RS4-11; assay: cells; details: Homo sapiens, RS4-11, 72 h
Description: Antiproliferative activity against human RS4;11 cells assessed as inhibition of cell growth incubated for 72 hrs by celltiter-glo luminescent cell viability assay

[17] = system: BaF3; assay: cells; details: Mus musculus, BaF3, 72 h
[18] = Cmax in rat plasma at 5 mg/kg, po measured up to 24 hrs by LC-MS/MS analysis; format: ADME, organism-based
[19] = molecular target: Proto-oncogene tyrosine-protein kinase receptor Ret (Homo sapiens, UniProt P07949); assay: Inhibition of human RET by biochemical kinase binding assay
[20] = system: NCI-H460; assay: cells; details: Homo sapiens, NCI-H460, 72 h
Description: Antiproliferative activity against human NCI-H460 cells assessed as inhibition of cell growth incubated for 72 hrs by celltiter-glo luminescent cell viability assay

[21] = Half life in monkey plasma at 5 mg/kg, po measured up to 24 hrs by LC-MS/MS analysis; format: ADME, organism-based, Macaca mulatta; details: rhesus monkey
[22] = Tmax in NOD/SCID mouse plasma xenografted with human MV4-11 cells at 4.5 mg/kg, po measured up to 24 hrs by LC-MS/MS analysis; format: ADME, organism-based
[23] = molecular target: Cytochrome P450 2C19 (Homo sapiens, UniProt P33261); assay: Inhibition of CYP2C19 in human liver microsomes by UPLC-MS/MS analysis; format: ADME, Microsome
[24] = Half life in monkey plasma at 1 mg/kg, iv measured up to 24 hrs by LC-MS/MS analysis; format: ADME, organism-based, Macaca mulatta; details: rhesus monkey
[25] = Cmax in monkey plasma at 5 mg/kg, po measured up to 24 hrs by LC-MS/MS analysis; format: ADME, organism-based, Macaca mulatta; details: rhesus monkey
[26] = system: MV4-11; assay: Induction of apoptosis in human MV4-11 cells harbouring FLT3-ITD mutant measured after 48 to 72 hrs by annexin V and PI staining based flow cytometry analysis; format: functional, cell-based; details: dose 1-100 nM, time 48-72 hrs
[27] = Cmax in monkey plasma at 1 mg/kg, iv measured up to 24 hrs by LC-MS/MS analysis; format: ADME, organism-based, Macaca mulatta; details: rhesus monkey
[28] = Antitumor activity against human […] cells harbouring FLT3-ITD xenografted in NOD/SCID mouse model assessed as tumor regression rate at 1.5 to 4.5 mg/kg/day, po administered for 21 days and measured for 31 days post dose by caliper analysis relative to control; format: functional, MV4-11; details: dose lower […], dose upper 4.5 mg/kg/day, time 52 day
[29] = molecular target: Cytochrome P450 3A4 (Homo sapiens, UniProt P08684); assay: Inhibition of CYP3A4 in human liver microsomes by UPLC-MS/MS analysis; format: ADME, Microsome
[30] = Tmax in NOD/SCID mouse plasma xenografted with human MV4-11 cells at […], po measured up to 24 hrs by LC-MS/MS analysis; format: ADME, organism-based; details: dose 1.5 mg/kg
[31] = Antitumor activity against human […] cells harbouring FLT3-ITD xenografted in NOD/SCID mouse model assessed as tumor regression rate at 20 mg/kg/day, po measured for 8 days by caliper analysis relative to control; format: functional, MV4-11; details: time 8 day
[32] = Cmax in NOD/SCID mouse plasma xenografted with human MV4-11 cells at 0.5 mg/kg, po measured up to 24 hrs by LC-MS/MS analysis; format: ADME, organism-based
[33] = system: MCF7; assay: cells; details: Homo sapiens, MCF7, 72 h
Description: Antiproliferative activity against human MCF7 cells assessed as inhibition of cell growth incubated for 72 hrs by celltiter-glo luminescent cell viability assay

[34] = Half life in NOD/SCID mouse plasma xenografted with human MV4-11 cells at […], po measured up to 24 hrs by LC-MS/MS analysis; format: ADME, organism-based; details: dose 1.5 mg/kg
[35] = Volume of distribution at steady state in dog plasma at 1 mg/kg, iv measured up to 24 hrs by LC-MS/MS analysis; format: ADME, organism-based, Canis lupus familiaris; details: read-out: Vdss
[36] = system: MOLT-4; assay: cells; details: Homo sapiens, MOLT-4, 72 h
Description: Antiproliferative activity against human MOLT-4 cells assessed as inhibition of cell growth incubated for 72 hrs by celltiter-glo luminescent cell viability assay

[37] = system: BaF3; assay: cells; details: Mus musculus, BaF3, 72 h; remark: listed apart in the source
Description: Antiproliferative activity against mouse BaF3 cells harbouring FLT3-D83HY mutant assessed as inhibition of cell growth incubated for 72 hrs by celltiter-glo luminescent cell viability assay

[38] = AUC (0 to t) in NOD/SCID mouse tumor xenografted with human MV4-11 cells at 4.5 mg/kg, po measured up to 24 hrs by LC-MS/MS analysis; format: ADME, organism-based, Neoplasm
[39] = system: MOLM-13; assay: Antitumor activity against human MOLM-13 cells xenografted in NOD/SCID mouse model assessed as tumor growth inhibition at […], po by caliper analysis relative to control; format: functional; details: dose 1.5 mg/kg/day, read-out: TGI
[40] = system: BaF3; assay: cells; details: Mus musculus, BaF3, 72 h; remark: listed apart in the source
[41] = system: SK-OV-3; assay: cells; details: Homo sapiens, SK-OV-3, 72 h
Description: Antiproliferative activity against human SK-OV-3 cells assessed as inhibition of cell growth incubated for 72 hrs by celltiter-glo luminescent cell viability assay

Chain of Receptor-type tyrosine-protein kinase FLT3 (Homo sapiens), P36888 [UNDEFINED MUTATION] (P36888 whole entry, looked up, stated change not applied): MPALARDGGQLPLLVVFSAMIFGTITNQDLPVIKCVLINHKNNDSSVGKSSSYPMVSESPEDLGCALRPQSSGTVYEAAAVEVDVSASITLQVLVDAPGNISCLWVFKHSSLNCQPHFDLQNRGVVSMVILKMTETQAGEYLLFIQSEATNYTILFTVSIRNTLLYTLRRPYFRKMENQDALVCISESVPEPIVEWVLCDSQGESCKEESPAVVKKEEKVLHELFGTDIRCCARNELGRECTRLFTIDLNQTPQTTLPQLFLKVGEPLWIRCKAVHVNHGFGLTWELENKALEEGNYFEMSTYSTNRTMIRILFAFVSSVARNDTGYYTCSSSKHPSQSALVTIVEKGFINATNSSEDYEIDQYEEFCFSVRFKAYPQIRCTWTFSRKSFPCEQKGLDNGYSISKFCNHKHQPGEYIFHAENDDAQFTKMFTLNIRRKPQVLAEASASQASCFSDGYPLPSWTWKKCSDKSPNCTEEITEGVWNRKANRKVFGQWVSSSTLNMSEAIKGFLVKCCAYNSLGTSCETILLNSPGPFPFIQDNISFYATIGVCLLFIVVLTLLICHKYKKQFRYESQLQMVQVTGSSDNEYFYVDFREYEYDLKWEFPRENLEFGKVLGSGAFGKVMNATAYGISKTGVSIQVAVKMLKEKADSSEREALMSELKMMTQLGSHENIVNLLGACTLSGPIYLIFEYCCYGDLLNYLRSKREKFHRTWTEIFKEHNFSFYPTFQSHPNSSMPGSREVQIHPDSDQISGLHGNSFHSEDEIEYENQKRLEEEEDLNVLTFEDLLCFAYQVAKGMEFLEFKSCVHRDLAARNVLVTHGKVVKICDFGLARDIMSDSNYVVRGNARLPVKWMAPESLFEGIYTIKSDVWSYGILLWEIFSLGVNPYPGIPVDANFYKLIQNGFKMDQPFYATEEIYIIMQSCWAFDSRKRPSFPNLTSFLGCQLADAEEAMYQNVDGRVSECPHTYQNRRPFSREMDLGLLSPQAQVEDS
Chain of Mast/stem cell growth factor receptor Kit (P10721 26-976 V559D/T670I limits assumed): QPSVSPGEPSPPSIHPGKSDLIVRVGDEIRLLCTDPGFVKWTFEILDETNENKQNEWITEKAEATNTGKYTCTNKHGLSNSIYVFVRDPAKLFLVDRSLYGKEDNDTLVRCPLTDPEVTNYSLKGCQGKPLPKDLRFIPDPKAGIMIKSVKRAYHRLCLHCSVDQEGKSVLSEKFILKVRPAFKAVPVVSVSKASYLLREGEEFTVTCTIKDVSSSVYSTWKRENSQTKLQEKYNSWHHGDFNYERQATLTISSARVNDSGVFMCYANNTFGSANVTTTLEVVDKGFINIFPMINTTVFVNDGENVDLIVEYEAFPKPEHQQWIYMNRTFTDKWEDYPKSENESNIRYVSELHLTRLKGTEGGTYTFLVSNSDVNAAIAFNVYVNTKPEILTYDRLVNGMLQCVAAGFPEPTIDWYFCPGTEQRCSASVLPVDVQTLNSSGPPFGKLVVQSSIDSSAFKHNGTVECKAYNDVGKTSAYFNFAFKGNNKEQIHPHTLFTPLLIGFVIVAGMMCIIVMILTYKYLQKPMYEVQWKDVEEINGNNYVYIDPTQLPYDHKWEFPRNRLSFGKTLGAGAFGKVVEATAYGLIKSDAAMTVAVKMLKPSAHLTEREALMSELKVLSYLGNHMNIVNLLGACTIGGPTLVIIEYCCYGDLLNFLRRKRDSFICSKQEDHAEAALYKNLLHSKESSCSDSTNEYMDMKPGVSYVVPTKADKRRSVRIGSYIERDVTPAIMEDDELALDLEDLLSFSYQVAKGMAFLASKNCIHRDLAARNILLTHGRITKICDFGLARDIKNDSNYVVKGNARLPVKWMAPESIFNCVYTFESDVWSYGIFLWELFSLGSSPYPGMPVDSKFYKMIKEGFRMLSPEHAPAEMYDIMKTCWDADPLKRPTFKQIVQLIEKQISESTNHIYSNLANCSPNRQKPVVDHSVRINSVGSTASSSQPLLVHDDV
Chain of Cytochrome P450 1A2 (P05177 whole entry): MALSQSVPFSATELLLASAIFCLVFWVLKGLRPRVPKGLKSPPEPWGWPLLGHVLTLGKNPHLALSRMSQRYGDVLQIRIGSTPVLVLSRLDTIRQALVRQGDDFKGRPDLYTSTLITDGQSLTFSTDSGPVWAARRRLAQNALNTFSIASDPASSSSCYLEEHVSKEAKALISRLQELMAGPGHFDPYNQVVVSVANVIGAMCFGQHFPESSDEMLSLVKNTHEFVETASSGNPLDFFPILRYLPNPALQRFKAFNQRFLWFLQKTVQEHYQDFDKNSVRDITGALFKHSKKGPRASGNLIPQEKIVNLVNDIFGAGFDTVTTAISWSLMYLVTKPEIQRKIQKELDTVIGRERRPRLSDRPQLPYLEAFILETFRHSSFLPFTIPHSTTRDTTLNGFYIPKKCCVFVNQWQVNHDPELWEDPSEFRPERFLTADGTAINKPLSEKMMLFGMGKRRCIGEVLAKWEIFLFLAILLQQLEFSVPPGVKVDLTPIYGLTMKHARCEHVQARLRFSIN
Chain of Cytochrome P450 3A4 (P08684 whole entry): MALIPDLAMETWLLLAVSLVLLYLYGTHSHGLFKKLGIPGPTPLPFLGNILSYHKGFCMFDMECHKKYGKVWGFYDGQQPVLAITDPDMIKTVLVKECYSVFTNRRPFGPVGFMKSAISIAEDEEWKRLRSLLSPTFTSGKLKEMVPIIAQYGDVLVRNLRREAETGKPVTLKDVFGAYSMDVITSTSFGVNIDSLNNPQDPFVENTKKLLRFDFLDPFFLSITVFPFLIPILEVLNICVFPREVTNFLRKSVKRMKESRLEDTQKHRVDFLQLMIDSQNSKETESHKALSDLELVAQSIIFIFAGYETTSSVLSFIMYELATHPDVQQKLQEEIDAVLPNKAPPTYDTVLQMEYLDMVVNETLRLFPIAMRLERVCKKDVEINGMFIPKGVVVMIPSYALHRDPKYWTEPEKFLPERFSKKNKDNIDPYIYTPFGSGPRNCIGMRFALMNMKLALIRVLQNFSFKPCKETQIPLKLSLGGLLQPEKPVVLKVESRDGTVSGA
Chain of Proto-oncogene tyrosine-protein kinase receptor Ret (P07949 whole entry): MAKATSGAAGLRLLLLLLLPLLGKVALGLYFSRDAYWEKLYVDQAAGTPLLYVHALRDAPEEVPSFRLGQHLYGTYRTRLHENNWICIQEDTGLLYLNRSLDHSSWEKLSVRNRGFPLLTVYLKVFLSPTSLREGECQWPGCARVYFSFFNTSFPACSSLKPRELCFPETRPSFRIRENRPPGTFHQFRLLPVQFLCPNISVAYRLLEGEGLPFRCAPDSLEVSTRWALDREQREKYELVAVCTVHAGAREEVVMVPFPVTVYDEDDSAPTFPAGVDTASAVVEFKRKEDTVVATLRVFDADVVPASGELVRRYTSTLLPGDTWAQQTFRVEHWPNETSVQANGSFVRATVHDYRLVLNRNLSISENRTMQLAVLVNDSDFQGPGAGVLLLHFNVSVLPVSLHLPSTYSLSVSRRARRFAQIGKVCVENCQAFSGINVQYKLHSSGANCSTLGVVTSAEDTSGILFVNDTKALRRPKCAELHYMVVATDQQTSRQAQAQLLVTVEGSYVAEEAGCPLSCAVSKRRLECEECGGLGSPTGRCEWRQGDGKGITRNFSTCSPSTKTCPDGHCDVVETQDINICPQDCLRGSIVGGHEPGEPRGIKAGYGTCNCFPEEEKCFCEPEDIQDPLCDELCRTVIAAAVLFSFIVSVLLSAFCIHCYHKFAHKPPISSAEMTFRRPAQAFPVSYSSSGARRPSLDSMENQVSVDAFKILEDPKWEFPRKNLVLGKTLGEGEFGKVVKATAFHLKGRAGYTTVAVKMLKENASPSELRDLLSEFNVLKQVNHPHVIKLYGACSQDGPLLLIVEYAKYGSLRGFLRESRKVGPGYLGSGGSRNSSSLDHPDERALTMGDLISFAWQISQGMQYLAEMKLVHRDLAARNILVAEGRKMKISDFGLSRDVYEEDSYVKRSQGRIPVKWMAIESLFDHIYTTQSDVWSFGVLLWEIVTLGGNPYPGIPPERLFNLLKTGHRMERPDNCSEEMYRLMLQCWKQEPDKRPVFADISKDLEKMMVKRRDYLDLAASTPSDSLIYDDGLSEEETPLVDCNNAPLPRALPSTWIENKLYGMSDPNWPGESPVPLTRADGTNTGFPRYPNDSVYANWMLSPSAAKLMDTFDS
Chain of Cytochrome P450 2C19 (P33261 whole entry): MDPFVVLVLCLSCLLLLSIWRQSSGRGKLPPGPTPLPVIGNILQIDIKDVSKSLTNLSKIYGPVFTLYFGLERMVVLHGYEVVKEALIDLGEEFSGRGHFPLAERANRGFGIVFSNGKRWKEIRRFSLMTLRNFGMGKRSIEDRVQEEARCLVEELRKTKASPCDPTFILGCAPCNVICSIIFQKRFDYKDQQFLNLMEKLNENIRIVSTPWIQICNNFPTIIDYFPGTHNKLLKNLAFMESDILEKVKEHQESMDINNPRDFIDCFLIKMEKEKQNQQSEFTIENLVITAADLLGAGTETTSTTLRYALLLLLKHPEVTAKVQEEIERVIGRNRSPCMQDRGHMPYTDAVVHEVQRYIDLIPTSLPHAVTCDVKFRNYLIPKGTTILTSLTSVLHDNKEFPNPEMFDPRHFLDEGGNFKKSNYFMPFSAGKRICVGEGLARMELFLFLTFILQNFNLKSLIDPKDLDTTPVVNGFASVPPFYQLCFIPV

IC50 [1]: 7 µM
IC50 [2]: > 10 µM
inhibition [3]: Dose-dependent-effect
Tmax [4]: 0.5 h
Cmax at 24 h [5]: 91.9 ng/mL
inhibition [6]: inactive
IC50 [7]: 0.154 µM
bioavailability [8]: 67.9%
IC50 [9]: > 10 µM
IC50 [10]: 0.283 µM
IC50 [11]: 0.001 µM
IC50 [12]: > 33.3 µM
inhibition [13]: Dose-dependent-effect
inhibition [14]: inactive
IC50 [15]: > 10 µM
IC50 [16]: > 10 µM
IC50 [17]: 0.0747 µM
Cmax [18]: 895 ng/mL
IC50 [19]: 0.11 µM
IC50 [20]: 7.8 µM
half-life [21]: 8.94 h
Tmax [22]: 1 h
IC50 [23]: > 33.3 µM
half-life [24]: 13.1 h
Cmax [25]: 1410 ng/mL
Cmax [27]: 4720 ng/mL
IC50 [29]: > 33.3 µM
Tmax at 24 h [30]: 1 h
Cmax [32]: 20.5 ng/mL
IC50 [33]: > 10 µM
half-life at 24 h [34]: 3.34 h
Vd [35]: 5.08 L/kg
IC50 [36]: > 10 µM
IC50 [37]: 0.0109 µM
AUC(0-t) at 24 h [38]: 4700 ng·h/mL
IC50 [40]: 0.0058 µM
IC50 [41]: > 10 µM
SMILES: CC(C)(C)c1cc(NC(=O)Nc2ccc(C#Cc3ccc(OCCCN4CCOCC4)cc3)cc2)no1
Activity [26]: Dose-dependent-effect
Activity [28]: 100%
Activity [31]: 85.4%
inhibition in vivo at […] [39]: 52%
